Here are results for 17 molecules from PMC8134453.

Structures are written as SMILES. Entries after “also recorded” stand apart in the source; their conditions may differ. Like-named read-outs stand apart in the source and are kept apart here.

Data set [1] has as its target T1, Jack bean (JB) urease (Canavalia ensiformis, UniProt P07374).
T1 construct: purchased Sigma-Aldrich (USA)
As to the kind of experiment: Urease inhibition, modified Berthelot spectrophotometric method. Format: biochemical. The method, then: All used material and JB urease (EC 3.5.1.5) were purchased from Sigma–Aldrich (USA). Potassium phosphate buffer (PPB) solution with concentration 100 mM and pH = 7.4 was prepared in distilled water. […] The enzymatic reactions were performed in PPB solution which reach to the 985 μL by adding urea (850 μL) and the synthesized compound (100 μL, 0–10 mg/mL). Then, urease (15 μL) was added and the concentration of liberated ammonia was measured after 60 min. The corresponding concentration of ammonia was determined by addition of the incubated solution (100 μL) to the mixture of 500 μL of solution I (5.0 g phenol and 25.0 mg sodium nitroprusside in 500 mL water) and 500 μL of solution II (2.5 g sodium hydroxide and 4.2 mL sodium hypochlorite (5% chlorine) in 500 mL water) which was incubated at 37 °C for 30 min. The absorbance was obtained by measuring indophenols. The activity of uninhibited JB urease was considered as the control activity of 100%. The inhibition assays were conducted according to this formula: I (%) = [1 − (T/C)] × 100; where I (%) is the enzyme inhibition, T (test) is the absorbance of the analyzed compounds in the presence of urease solution, and C (control) is the absorbance of the solvent in the presence of urease solution. Data were expressed as mean ± […] and run in triplicate. […] Thiourea and hydroxyurea were used as the standard inhibitors for urease.

Data set [2] addresses T1, Jack bean (JB) urease. As to the kind of experiment: Urease kinetic study (Lineweaver–Burk plots). Format: biochemical.
Protocol: The inhibition mode and Ki value were determined by Lineweaver–Burk plots and secondary re-plotting of the mentioned plots, respectively.
All used material and JB urease (EC 3.5.1.5) were purchased from Sigma–Aldrich (USA). Potassium phosphate buffer (PPB) solution with concentration 100 mM and pH = 7.4 was prepared in distilled water. […] The enzymatic reactions were performed in PPB solution which reach to the 985 μL by adding urea (850 μL) and the synthesized compound (100 μL, 0–10 mg/mL). Then, urease (15 μL) was added and the concentration of liberated ammonia was measured after 60 min. The corresponding concentration of ammonia was determined by addition of the incubated solution (100 μL) to the mixture of 500 μL of solution I (5.0 g phenol and 25.0 mg sodium nitroprusside in 500 mL water) and 500 μL of solution II (2.5 g sodium hydroxide and 4.2 mL sodium hypochlorite (5% chlorine) in 500 mL water) which was incubated at 37 °C for 30 min. The absorbance was obtained by measuring indophenols. The activity of uninhibited JB urease was considered as the control activity of 100%. The inhibition assays were conducted according to this formula: I (%) = [1 − (T/C)] × 100; where I (%) is the enzyme inhibition, T (test) is the absorbance of the analyzed compounds in the presence of urease solution, and C (control) is the absorbance of the solvent in the presence of urease solution. Data were expressed as mean ± standard error (SD) and run in triplicate. […] Thiourea and hydroxyurea were used as the standard inhibitors for urease.
The conditions of data set [3]: no reference given; cited from earlier work.
The mark [4] stands for this setting: Jack bean urease, mean ± standard error of the mean, at least three experiments, read-out: IC50 against urease.

T1 sequence (P07374 whole entry, looked up): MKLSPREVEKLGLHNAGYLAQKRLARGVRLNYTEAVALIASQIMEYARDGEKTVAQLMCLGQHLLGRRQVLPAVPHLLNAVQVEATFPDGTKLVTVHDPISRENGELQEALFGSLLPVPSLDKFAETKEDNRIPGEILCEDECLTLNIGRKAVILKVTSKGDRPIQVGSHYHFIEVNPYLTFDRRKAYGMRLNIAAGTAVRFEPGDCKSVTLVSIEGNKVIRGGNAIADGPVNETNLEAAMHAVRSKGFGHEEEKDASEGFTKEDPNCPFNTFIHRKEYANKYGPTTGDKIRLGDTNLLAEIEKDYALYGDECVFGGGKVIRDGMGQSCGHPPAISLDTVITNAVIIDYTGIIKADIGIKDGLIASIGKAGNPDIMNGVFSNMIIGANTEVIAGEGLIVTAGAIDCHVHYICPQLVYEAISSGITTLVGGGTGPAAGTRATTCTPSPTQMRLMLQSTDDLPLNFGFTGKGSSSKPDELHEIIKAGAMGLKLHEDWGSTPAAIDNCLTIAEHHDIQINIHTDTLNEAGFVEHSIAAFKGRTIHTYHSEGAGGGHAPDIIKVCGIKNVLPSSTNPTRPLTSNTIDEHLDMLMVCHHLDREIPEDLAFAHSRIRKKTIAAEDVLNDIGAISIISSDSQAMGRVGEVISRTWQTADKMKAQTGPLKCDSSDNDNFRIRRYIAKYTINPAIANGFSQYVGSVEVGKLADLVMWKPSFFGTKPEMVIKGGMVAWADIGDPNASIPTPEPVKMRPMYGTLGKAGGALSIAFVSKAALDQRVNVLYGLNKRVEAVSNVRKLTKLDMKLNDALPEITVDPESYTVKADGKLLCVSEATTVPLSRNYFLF

Regarding `CN1C(=O)C(=CN/N=C/c2ccccc2)C(=O)N(C)C1=O` [Compound 7a, (E)-5-((2-benzylidenehydrazinyl)methylene)-1,3-dimethylpyrimidine-2,4,6(1H,3H,5H)-trione], the IC50 in data set [1] (setting [4]) amounted to 4430 ± 210 nM. `CN1C(=O)C(=CN/N=C/c2ccccc2O)C(=O)N(C)C1=O` [Compound 7b, (E)-5-((2-(2-hydroxybenzylidene)hydrazinyl)methylene)-1,3-dimethylpyrimidine-2,4,6(1H,3H,5H)-trione]: the 50% inhibitory concentration (IC50) in data set [1] (setting [4]) stood at 3090 ± 130 nM. On the same count and under the same terms, then `CN1C(=O)C(=CN/N=C/c2ccc(O)cc2O)C(=O)N(C)C1=O` [Compound 7c, (E)-5-((2-(2,4-dihydroxybenzylidene)hydrazinyl)methylene)-1,3-dimethylpyrimidine-2,4,6(1H,3H,5H)-trione], with 1200 ± 50 nM; and `COc1cc(/C=N/NC=C2C(=O)N(C)C(=O)N(C)C2=O)cc(OC)c1OC` [Compound 7d, (E)-1,3-dimethyl-5-((2-(3,4,5-trimethoxybenzylidene)hydrazinyl)methylene)pyrimidine-2,4,6(1H,3H,5H)-trione], with 2530 ± 110 nM. As for `CN1C(=O)C(=CN/N=C/c2cccc(Oc3ccccc3)c2)C(=O)N(C)C1=O` [Compound 7e, (E)-1,3-dimethyl-5-((2-(3-phenoxybenzylidene)hydrazinyl)methylene)pyrimidine-2,4,6(1H,3H,5H)-trione], the IC50 in data set [1] (setting [4]) is 2850 ± 230 nM. As to `CN1C(=O)C(=CN/N=C/c2ccc(Cl)cc2)C(=O)N(C)C1=O` [Compound 7f, (E)-5-((2-(4-chlorobenzylidene)hydrazinyl)methylene)-1,3-dimethylpyrimidine-2,4,6(1H,3H,5H)-trione], the half-maximal inhibitory concentration (IC50) in data set [1] (setting [4]) stood at 3560 ± 160 nM. With `CN1C(=O)C(=CN/N=C/c2cccc(Br)c2)C(=O)N(C)C1=O` [Compound 7g, (E)-5-((2-(3-bromobenzylidene)hydrazinyl)methylene)-1,3-dimethylpyrimidine-2,4,6(1H,3H,5H)-trione], the IC50 in data set [1] (setting [4]) came out at 3620 ± 190 nM. `CN1C(=O)C(=CN/N=C/c2ccccc2[N+](=O)[O-])C(=O)N(C)C1=O` [Compound 7h, (E)-1,3-dimethyl-5-((2-(2-nitrobenzylidene)hydrazinyl)methylene)pyrimidine-2,4,6(1H,3H,5H)-trione] showed a melting point of 178 to 180 °C. Besides, in data set [1], the IC50 came out at 610 ± 60 nM. In addition, in data set [1] (ratio of urease IC50 values), the “activity fold superior to parent phenyl derivative 7a” value is given as 7.2 fold and the “times more potent than thiourea” value is given as 37.7 times. Besides, the affinity in data set [2] corresponds to a Ki of 820 nM. Moreover, in data set [2] (Lineweaver–Burk plot), the inhibition mode result was “mixed-type inhibitor; also recorded: mix-mode inhibitor”. With `CN1C(=O)C(=CN/N=C/c2ccc([N+](=O)[O-])cc2)C(=O)N(C)C1=O` [Compound 7i, (E)-1,3-dimethyl-5-((2-(4-nitrobenzylidene)hydrazinyl)methylene)pyrimidine-2,4,6(1H,3H,5H)-trione], in data set [1] (setting [4]), the IC50 was determined as 1310 ± 90 nM. Further, the “decrease of inhibitory activity relative to 2-nitro derivative 7h” value in data set [1] (urease IC50 compared with 7h) is listed as “about two”.

Take `CN1C(=O)C(=CN/N=C/c2cccc(Cl)c2Cl)C(=O)N(C)C1=O` [Compound 7j, (E)-5-((2-(2,3-dichlorobenzylidene)hydrazinyl)methylene)-1,3-dimethylpyrimidine-2,4,6(1H,3H,5H)-trione]: in data set [1] (setting [4]), the IC50 was determined as 4520 ± 310 nM. On to `CN1C(=O)C(=CN/N=C/c2cc([N+](=O)[O-])ccc2Cl)C(=O)N(C)C1=O` [Compound 7k, (E)-5-((2-(2-chloro-5-nitrobenzylidene)hydrazinyl)methylene)-1,3-dimethylpyrimidine 2,4,6(1H,3H,5H)-trione], for which the IC50 in data set [1] (setting [4]) was determined as 3940 ± 250 nM.

`CN1C(=O)C(=CN/N=C/c2cc(Cl)ccc2[N+](=O)[O-])C(=O)N(C)C1=O` [Compound 7l, (E)-5-((2-(5-chloro-2-nitrobenzylidene)hydrazinyl)methylene)-1,3-dimethylpyrimidine-2,4,6(1H,3H,5H)-trione]: in data set [1] (setting [4]), the IC50 came out at 1340 ± 120 nM. Same read-out and setting: the value for `CN1C(=O)C(=CN/N=C/c2cccs2)C(=O)N(C)C1=O` [Compound 7m, (E)-1,3-dimethyl-5-((2-(thiophen-2-ylmethylene)hydrazinyl)methylene)pyrimidine2,4,6(1H,3H,5H)-trione] was 860 ± 80 nM. For `CN1C(=O)C(=CN/N=C/c2ccc(Cl)s2)C(=O)N(C)C1=O` [Compound 7n, (E)-5-((2-((5-chlorothiophen-2-yl)methylene)hydrazinyl)methylene)-1,3-dimethylpyrimidine-2,4,6(1H,3H,5H)-trione], in data set [1] (setting [4]), the IC50 is 4560 ± 180 nM. Regarding `CN1C(=O)C(=CN/N=C/c2cccc3ccccc23)C(=O)N(C)C1=O` [Compound 7o, (E)-1,3-dimethyl-5-((2-(naphthalen-1-ylmethylene)hydrazinyl)methylene)pyrimidine-2,4,6(1H,3H,5H)-trione], in data set [1], it took 1940 ± 220 nM to reach half-maximal inhibition (IC50). In the case of `NC(=O)NO` [Hydroxyurea, reference compound], the IC50 in data set [1] (setting [4]) worked out at 100000 ± 150 nM. Further, the experimental solubility in data set [3] was 100 mg/mL. For `NC(N)=S` [Thiourea, reference compound], in data set [1] (setting [4]), the IC50 was 23000 ± 1700 nM.

One may read the IC50 as the concentration that gives 50% inhibition. Broadly, the melting point is the temperature of the solid-liquid transition. The term Ki denotes the dissociation constant of the complex between target and ligand, obtained from inhibition or displacement. Low values mean a stronger hold on the target, high ones a looser hold on the target.
